Reference: paper PMC3794980, “Identification of Conserved and HLA Promiscuous DENV3 T-Cell Epitopes” (PLoS Neglected Tropical Diseases, 2013)

Experiments:
[1] = molecular target: DRB3*0101 (Homo sapiens, UniProt P01903+P79483); assay: biochemical; assay type: binding
[2] = molecular target: DRB5*0101 (Homo sapiens, UniProt P01903+Q30154); assay: biochemical; assay type: binding

Compound	IC50 [1]	IC50 [2]
CC[C@H](C)[C@H](NC(=O)[C@@H]1CCCN1C(=O)[C@H](CCCCN)NC(=O)[C@@H](NC(=O)[C@@H](NC(=O)[C@H](CS)NC(=O)[C@@H](N)CC(=O)O)C(C)C)C(C)C)C(=O)N[C@@H](CC(=O)O)C(=O)N[C@@H](CC(=O)O)C(=O)N[C@@H](CCCNC(=N)N)C(=O)N[C@@H](Cc1ccccc1)C(=O)N[C@@H](C)C(=O)N[C@@H](CC(N)=O)C(=O)N[C@@H](C)C(=O)N[C@@H](CC(C)C)C(=O)N[C@@H](CC(C)C)C(=O)N[C@@H](C)C(=O)O [NS5 664-680]	4.09 µM	–
CC[C@H](C)[C@H](NC(=O)[C@@H](NC(=O)[C@H](Cc1ccccc1)NC(=O)[C@H](CO)NC(=O)[C@H](CO)NC(=O)[C@H](CC(N)=O)NC(=O)[C@H](CCC(N)=O)NC(=O)[C@@H](NC(=O)[C@H](CCC(=O)O)NC(=O)[C@H](C)NC(=O)[C@@H](NC(=O)[C@@H](NC(=O)[C@@H](NC(=O)[C@H](CCCCN)NC(=O)[C@H](C)N)[C@@H](C)CC)C(C)C)[C@@H](C)O)[C@@H](C)O)[C@@H](C)CC)C(=O)O [NS1 121-135]	1.24 µM	9.46 µM
CC[C@H](C)[C@H](NC(=O)[C@@H](NC(=O)[C@@H](N)Cc1ccccc1)[C@@H](C)CC)C(=O)N[C@@H](CC(=O)O)C(=O)NCC(=O)N1CCC[C@H]1C(=O)N[C@@H](CC(N)=O)C(=O)N[C@H](C(=O)N1CCC[C@H]1C(=O)N[C@@H](CCC(=O)O)C(=O)N[C@@H](CS)C(=O)N1CCC[C@H]1C(=O)N[C@@H](CO)C(=O)N[C@@H](C)C(=O)N[C@@H](CO)C(=O)O)[C@@H](C)O [NS1 133-147]	–	6.91 µM
CC[C@H](C)[C@H](NC(=O)[C@H](Cc1ccc(O)cc1)NC(=O)[C@H](CCC(N)=O)NC(=O)[C@H](CC(=O)O)NC(=O)[C@H](CC(N)=O)NC(=O)[C@H](CCC(=O)O)NC(=O)[C@H](CCCCN)NC(=O)[C@H](CCC(N)=O)NC(=O)[C@@H]1CCCN1C(=O)[C@@H](N)CC(N)=O)C(=O)N[C@@H](Cc1ccccc1)C(=O)N[C@H](C(=O)NCC(=O)N[C@@H](CCC(N)=O)C(=O)N1CCC[C@H]1C(=O)O)[C@@H](C)O [NS3 465-479]	10.6 µM	–
CC[C@H](C)[C@H](NC(=O)[C@H](CC(C)C)NC(=O)[C@H](CCC(=O)O)NC(=O)[C@H](Cc1c[nH]cn1)NC(=O)[C@H](Cc1ccccc1)NC(=O)[C@H](Cc1c[nH]cn1)NC(=O)[C@H](Cc1c[nH]cn1)NC(=O)[C@H](CO)NC(=O)[C@H](CS)NC(=O)[C@H](Cc1ccccc1)NC(=O)[C@@H]1CCCN1C(=O)[C@@H](NC(=O)[C@H](CCC(N)=O)NC(=O)[C@H](CCC(N)=O)NC(=O)[C@H](Cc1c[nH]c2ccccc12)NC(=O)[C@@H](N)CC(=O)O)C(C)C)C(=O)N[C@@H](CCSC)C(=O)O [NS5 702-718]	4.74 µM	3.22 µM
CC[C@H](C)[C@H](NC(=O)[C@@H](NC(=O)[C@H](CCCNC(=N)N)NC(=O)[C@H](CC(=O)O)NC(=O)[C@H](C)NC(=O)[C@H](CCCCN)NC(=O)[C@H](Cc1ccccc1)NC(=O)[C@@H](N)CC(N)=O)C(C)C)C(=O)N[C@@H](CC(=O)O)C(=O)N1CCC[C@H]1C(=O)N[C@@H](CCCNC(=N)N)C(=O)N[C@@H](CCCNC(=N)N)C(=O)N[C@@H](CS)C(=O)N[C@@H](CC(C)C)C(=O)N[C@@H](CCCCN)C(=O)O [NS3 417-431]	0.632 µM	–
CC[C@H](C)[C@H](NC(=O)[C@@H]1CCCN1C(=O)CNC(=O)[C@H](C)NC(=O)[C@H](CC(C)C)NC(=O)[C@H](CO)NC(=O)[C@H](CCCCN)NC(=O)[C@@H]1CCCN1C(=O)[C@@H](NC(=O)[C@@H](NC(=O)[C@H](CCSC)NC(=O)[C@H](CC(=O)O)NC(=O)[C@H](CO)NC(=O)[C@H](CCC(=O)O)NC(=O)[C@@H](N)CC(C)C)[C@@H](C)CC)[C@@H](C)CC)C(=O)O [NS1 237-251]	2.71 µM	14.8 µM
CC(C)C[C@H](NC(=O)[C@H](CC(=O)O)NC(=O)[C@H](Cc1ccccc1)NC(=O)[C@@H](N)Cc1ccccc1)C(=O)N1CCC[C@H]1C(=O)N[C@@H](CC(C)C)C(=O)N1CCC[C@H]1C(=O)N[C@@H](Cc1c[nH]c2ccccc12)C(=O)N[C@H](C(=O)N[C@@H](CO)C(=O)NCC(=O)N[C@@H](C)C(=O)N[C@H](C(=O)N[C@H](C(=O)N[C@@H](CCC(=O)O)C(=O)O)[C@@H](C)O)[C@@H](C)O)[C@@H](C)O [Envelope 211-225]	–	16.2 µM
CC[C@H](C)[C@H](NC(=O)[C@@H](NC(=O)[C@@H]1CCCN1C(=O)[C@@H](N)CO)[C@@H](C)CC)C(=O)N[C@@H](CC(N)=O)C(=O)N[C@@H](CCCNC(=N)N)C(=O)N[C@@H](CCC(=O)O)C(=O)NCC(=O)N[C@@H](CCCCN)C(=O)N[C@H](C(=O)N[C@H](C(=O)NCC(=O)N[C@@H](CC(C)C)C(=O)N[C@@H](Cc1ccc(O)cc1)C(=O)NCC(=O)O)C(C)C)C(C)C [NS3 137-151]	9.58 µM	1.68 µM
CC[C@H](C)[C@H](NC(=O)[C@H](CO)NC(=O)[C@@H]1CCCN1C(=O)[C@@H](NC(=O)[C@H](Cc1ccccc1)NC(=O)[C@H](Cc1c[nH]c2ccccc12)NC(=O)[C@@H](NC(=O)[C@@H](NC(=O)[C@H](CCCCN)NC(=O)CNC(=O)[C@H](C)NC(=O)[C@H](Cc1ccccc1)NC(=O)[C@H](CC(=O)O)NC(=O)[C@@H](N)[C@@H](C)O)[C@@H](C)O)C(C)C)C(C)C)C(=O)N[C@@H](CCCCN)C(=O)O [NS3 353-367]	15.7 µM	1.22 µM
CC[C@H](C)[C@H](NC(=O)[C@@H](NC(=O)[C@H](CCCCN)NC(=O)[C@@H](N)CCCCN)C(C)C)C(=O)N[C@@H](CCC(N)=O)C(=O)N[C@@H](CC(C)C)C(=O)N[C@@H](CO)C(=O)N[C@@H](CCCNC(=N)N)C(=O)N[C@@H](CCCCN)C(=O)N[C@H](C(=O)N[C@@H](Cc1ccccc1)C(=O)N[C@@H](CC(=O)O)C(=O)N[C@H](C(=O)N[C@@H](CCC(=O)O)C(=O)N[C@@H](Cc1ccc(O)cc1)C(=O)O)[C@@H](C)O)[C@@H](C)O [NS3 381-395]	0.399 µM	5.72 µM
CC[C@H](C)[C@H](NC(=O)[C@@H](NC(=O)[C@H](CC(C)C)NC(=O)[C@H](CC(N)=O)NC(=O)[C@H](CCCNC(=N)N)NC(=O)[C@H](CCCCN)NC(=O)[C@H](CCCCN)NC(=O)[C@H](Cc1ccccc1)NC(=O)[C@H](CCSC)NC(=O)[C@H](CCC(=O)O)NC(=O)[C@H](CCC(=O)O)NC(=O)[C@H](CCC(=O)O)NC(=O)[C@H](CC(C)C)NC(=O)[C@H](CCC(=O)O)NC(=O)[C@@H]1CCCN1)[C@@H](C)O)C(=O)O [NS3 177-191]	10.7 µM	–
CC[C@H](C)[C@H](NC(=O)[C@H](CC(=O)O)NC(=O)[C@@H](NC(=O)[C@@H](NC(=O)[C@@H](NC(=O)[C@@H](NC(=O)[C@@H](N)Cc1ccccc1)C(C)C)C(C)C)[C@@H](C)O)[C@@H](C)O)C(=O)N[C@@H](CO)C(=O)N[C@@H](CCC(=O)O)C(=O)N[C@@H](CCSC)C(=O)NCC(=O)N[C@@H](C)C(=O)N[C@@H](CC(N)=O)C(=O)N[C@@H](Cc1ccccc1)C(=O)N[C@@H](CCCCN)C(=O)O [NS3 405-419]	1.59 µM	–
CC[C@H](C)[C@H](NC(=O)[C@H](CS)NC(=O)[C@H](Cc1ccccc1)NC(=O)[C@H](CCC(N)=O)NC(=O)[C@H](CC(N)=O)NC(=O)[C@H](CC(N)=O)NC(=O)[C@H](CCCCN)NC(=O)[C@H](CC(C)C)NC(=O)[C@H](Cc1c[nH]c2ccccc12)NC(=O)[C@@H]1CCCN1C(=O)[C@H](CCC(=O)O)NC(=O)[C@@H](NC(=O)[C@H](CCSC)NC(=O)[C@H](CCCCN)NC(=O)[C@@H](N)CC(C)C)C(C)C)C(=O)N[C@@H](CCCCN)C(=O)N[C@H](C(=O)O)C(C)C [NS5 165-181]	–	0.02 µM
CC(C)C[C@H](NC(=O)CNC(=O)[C@H](CCC(=O)O)NC(=O)CNC(=O)[C@H](CCC(=O)O)NC(=O)[C@@H](NC(=O)CNC(=O)[C@H](CO)NC(=O)[C@H](Cc1ccc(O)cc1)NC(=O)[C@H](CO)NC(=O)[C@H](CC(N)=O)NC(=O)[C@H](CCC(=O)O)NC(=O)[C@H](CCCNC(=N)N)NC(=O)[C@H](CO)NC(=O)[C@H](Cc1ccccc1)NC(=O)[C@H](Cc1c[nH]c2ccccc12)NC(=O)[C@@H](N)Cc1c[nH]cn1)C(C)C)C(=O)O [NS5 495-511]	1.16 µM	0.723 µM
CSCC[C@H](NC(=O)[C@H](C)NC(=O)[C@H](CCSC)NC(=O)[C@H](CCC(N)=O)NC(=O)[C@@H](NC(=O)[C@@H](NC(=O)[C@H](CCSC)NC(=O)[C@@H]1CCCN1C(=O)[C@@H](NC(=O)[C@@H](NC(=O)[C@H](CC(=O)O)NC(=O)[C@H](Cc1c[nH]c2ccccc12)NC(=O)[C@@H]1CCCN1)C(C)C)C(C)C)C(C)C)[C@@H](C)O)C(=O)N[C@H](C(=O)N[C@@H](CC(=O)O)C(=O)N[C@H](C(=O)N[C@H](C(=O)O)[C@@H](C)O)[C@@H](C)O)[C@@H](C)O [NS5 330-346]	–	1.04 µM
CC[C@H](C)[C@H](NC(=O)CNC(=O)[C@H](CO)NC(=O)[C@H](CCCCN)NC(=O)[C@@H](N)CCCCN)C(=O)N[C@H](C(=O)N[C@@H](CCC(=O)O)C(=O)N[C@H](C(=O)N[C@@H](CC(=O)O)C(=O)N[C@@H](CCCNC(=N)N)C(=O)N[C@H](C(=O)N[C@@H](CCC(=O)O)C(=O)N[C@@H](C)C(=O)N[C@@H](CCCCN)C(=O)N[C@@H](CCC(=O)O)C(=O)NCC(=O)N[C@@H](CC(C)C)C(=O)O)[C@@H](C)O)C(C)C)[C@@H](C)O [NS5 29-45]	5.38 µM	–
CC[C@H](C)[C@H](NC(=O)[C@H](CO)NC(=O)[C@@H]1CCCN1C(=O)[C@@H](NC(=O)[C@H](Cc1ccccc1)NC(=O)[C@H](Cc1c[nH]c2ccccc12)NC(=O)[C@@H](NC(=O)[C@@H](NC(=O)[C@H](CCCCN)NC(=O)CN)[C@@H](C)O)C(C)C)C(C)C)C(=O)N[C@@H](CCCCN)C(=O)N[C@@H](C)C(=O)NCC(=O)N[C@@H](CC(N)=O)C(=O)N[C@@H](CC(=O)O)C(=O)O [NS3 357-371]	–	0.273 µM
CC[C@H](C)[C@H](NC(=O)CNC(=O)[C@@H](NC(=O)[C@H](C)NC(=O)[C@@H](NC(=O)[C@H](CS)NC(=O)[C@@H](N)CO)[C@@H](C)CC)[C@@H](C)CC)C(=O)N[C@H](C(=O)N[C@H](C(=O)N[C@@H](CC(C)C)C(=O)N[C@@H](Cc1ccc(O)cc1)C(=O)N[C@@H](CC(C)C)C(=O)NCC(=O)N[C@@H](C)C(=O)N[C@H](C(=O)N[C@H](C(=O)N[C@@H](CCC(N)=O)C(=O)N[C@@H](C)C(=O)O)C(C)C)C(C)C)[C@@H](C)O)[C@@H](C)CC [Envelope 476-493]	3.83 µM	–
